Laboratory results reported in PubChem BioAssay (NCI).
Several values for one entry are separate records, joined by “and”; a condition that tells them apart may be missing. Identical values can stand only once.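 In this assay, cells in 96-well plates receive the compound at five concentrations for 48 hours. Endpoints are linearly interpolated between the surrounding concentrations. Abbreviation: GI50, concentration required for 50% inhibition of growth. The concentration for full growth arrest is given as TGI.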

Key:
Test in all cases: NCI tumour cell line growth inhibition, 48 h
HS 578T breast = system: HS 578T breast
SK-MEL-28 melanoma = system: SK-MEL-28 melanoma
SF-295 CNS = system: SF-295 CNS
RXF 393 renal = system: RXF 393 renal
UACC-257 melanoma = system: UACC-257 melanoma
HL-60(TB) leukemia = system: HL-60(TB) leukemia
MDA-MB-231 breast = system: MDA-MB-231 breast
786-0 renal = system: 786-0 renal
OVCAR-8 ovarian = system: OVCAR-8 ovarian
MDA-MB-435 = system: MDA-MB-435

| SMILES | GI50 (HS 578T breast) | TGI (HS 578T breast) | GI50 (SK-MEL-28 melanoma) | TGI (SK-MEL-28 melanoma) | GI50 (SF-295 CNS) | TGI (SF-295 CNS) | GI50 (RXF 393 renal) | TGI (RXF 393 renal) | GI50 (UACC-257 melanoma) | TGI (UACC-257 melanoma) | GI50 (HL-60(TB) leukemia) | TGI (HL-60(TB) leukemia) | GI50 (MDA-MB-231 breast) | TGI (MDA-MB-231 breast) | GI50 (786-0 renal) | TGI (786-0 renal) | GI50 (OVCAR-8 ovarian) | TGI (OVCAR-8 ovarian) | GI50 (MDA-MB-435) | TGI (MDA-MB-435) |
| --- | --- | --- | --- | --- | --- | --- | --- | --- | --- | --- | --- | --- | --- | --- | --- | --- | --- | --- | --- | --- |
| CCN(CC)CCOc1nc2ccc(OC)cc2c2c1-c1ccc(OC)cc1C2=O | 1.48 µM | 6.93 µM | 1.81 µM | 3.24 µM | 0.519 µM | 1.74 µM | 1.21 µM | 2.55 µM | 1.4 µM | 3.12 µM | 1.06 µM | 3.37 µM | 1.54 µM | 4.1 µM | 1.39 µM | 3.11 µM | 0.526 µM | 2.26 µM | 0.69 µM | 2.09 µM |
| COc1cc(/C(C#N)=C/c2ccc3c(c2OC)OCO3)cc2c1OCO2 | 0.0448 µM | 0.4 µM | 1.24 µM | > 100 µM | 0.0428 µM | 4.36 µM | 0.174 µM | 0.753 µM | 0.794 µM | > 100 µM | 0.0314 µM | 0.922 µM | 0.753 µM | 19.4 µM | 0.2 µM | 21.5 µM | 0.243 µM | > 60.9 µM | 0.0209 µM | 0.0664 µM |
| CCOc1cc2ncc(C#N)c(Nc3ccc(OCc4cccc(F)c4)c(Cl)c3)c2cc1NC(=O)CC1CCSS1 (stereo not drawn) | 4.12 µM | > 25 µM | 1.2 µM | > 19.3 µM | > 25 µM | > 25 µM | 2.35 µM | 15.8 µM | 24.5 µM | > 25 µM | 3.48 µM | > 25 µM | 1.02 µM | > 25 µM | > 13.8 µM | > 25 µM | 6.36 µM | > 25 µM | 0.596 µM | 1.52 µM |
| N=C1C(c2nc(-c3ccc(Br)cc3)cs2)=C(O)CN1Cc1cccnc1 | – | 2.86 µM | 15.7 µM | 51.7 µM | 16.6 µM | 81.3 µM | 7.98 µM | 31.3 µM | 27.8 µM | > 100 µM | 3.42 µM | 20.2 µM | 15.9 µM | 43.5 µM | 15.3 µM | 34.3 µM | 28.8 µM | > 100 µM | 15.5 µM | > 100 µM |
| O=C(CN1CCN(c2ncccn2)CC1)Nc1ccc(Cl)cc1C(=O)c1ccccc1Cl | 83.6 µM | > 100 µM | > 100 µM | > 100 µM | > 100 µM | > 100 µM | > 100 µM | > 100 µM | > 100 µM | > 100 µM | 25.3 µM | > 100 µM | > 100 µM | > 100 µM | 62 µM | > 100 µM | > 100 µM | > 100 µM | > 100 µM | > 100 µM |
| COc1ccc2c(c1)[nH]c(=O)c1c3cc(C)c(C)cc3cn21 | < 0.01 µM | – | < 0.01 µM | 1.91 µM | < 0.01 µM | – | < 0.01 µM | 1.22 µM | 12.8 µM | 26.4 µM | < 0.01 µM | < 0.013 µM | 0.0291 µM | 1.53 µM | < 0.0233 µM | 1.6 µM | < 0.0179 µM | 1.48 µM | < 0.01 µM | – |
| C=C1C(=O)O[C@H]2[C@H]1CC/C(COC(=O)c1cc3cc(F)ccc3[nH]1)=C\CC[C@@]1(C)O[C@@H]21 | 2.95 µM | 18.8 µM | 1.79 µM | 3.69 µM | 7.1 µM | 21.6 µM | 1.47 µM | 2.87 µM | 2.28 µM | 4.26 µM | 2.07 µM | 9.27 µM | 1.59 µM | 3.5 µM | 1.78 µM | 3.75 µM | 2.17 µM | 6.67 µM | 1.5 µM | 2.96 µM |
| COc1cc(C2C=C(c3cccc(NC(C)=O)c3)Nc3ncnn32)cc(OC)c1OC (stereo not drawn) | 0.153 µM | 0.413 µM | 0.29 µM | > 100 µM | 0.229 µM | > 32.8 µM | 0.576 µM | > 100 µM | > 92.5 µM | > 100 µM | 0.443 µM | 2.28 µM | 2.11 µM | > 55.9 µM | 0.615 µM | > 100 µM | 0.327 µM | > 100 µM | 0.117 µM | 0.579 µM |
| O=[N+]([O-])C1C(c2ccccc2)C12c1ccccc1-c1ccccc12 (stereo not drawn) | 2.28 µM | > 100 µM | 4.18 µM | 22.5 µM | 0.598 µM | 43.9 µM | 0.845 µM | 6.24 µM | 6.38 µM | 51.2 µM | 2.12 µM | > 100 µM | 0.633 µM | 13.5 µM | 0.59 µM | 14.2 µM | 0.645 µM | > 24.3 µM | 0.188 µM | 0.454 µM |
| CC(=O)Nc1ccc2c(c1)c(C1=C(c3cn(C)c4ccccc34)C(=O)NC1=O)cn2C | 0.596 µM | > 6.79 µM | 3.62 µM | > 25 µM | 1.18 µM | > 25 µM | 0.608 µM | 2.68 µM | > 21.6 µM | > 25 µM | 0.913 µM | 4.9 µM | 5 µM | > 25 µM | 1.28 µM | > 25 µM | 2.68 µM | > 25 µM | 0.198 µM | > 25 µM |
| COc1cc2c3c(n(C)c(=O)c2cc1OC)-c1cc2c(cc1/C3=C\CCCCCN)OCO2 | 11.7 µM | 46.1 µM | 33.7 µM | > 100 µM | 0.887 µM | > 42.4 µM | 7 µM | 41 µM | 16.8 µM | 45.9 µM | 2.92 µM | 21.9 µM | 2.5 µM | 12.9 µM | 0.979 µM | > 50.9 µM | – | 3.33 µM | 4.09 µM | > 90.6 µM |
| Nc1nc(SCc2ccccn2)c2ncn(C3CCCC3)c2n1 | – | 88.5 µM | – | > 100 µM | – | > 100 µM | – | > 100 µM | – | > 100 µM | – | > 100 µM | – | > 100 µM | – | > 100 µM | – | > 100 µM | – | > 100 µM |
| O=C(Nc1ccc(N2CCNCC2)cc1)c1[nH]ncc1Nc1ncnc2sc3c(c12)CCC3 | 0.0994 µM | 2.08 µM | 1 µM | 2.29 µM | 0.359 µM | 1.95 µM | 0.394 µM | 1.89 µM | 0.478 µM | 2.43 µM | 1.2 µM | 3.28 µM | 0.333 µM | 2.04 µM | 0.254 µM | 1.52 µM | 0.36 µM | 1.84 µM | 0.199 µM | 1.77 µM |
| N#Cc1c(-c2nc3ccccc3s2)c(=O)oc2cc(O)ccc12 | – | > 100 µM | – | > 100 µM | – | > 100 µM | – | > 100 µM | – | > 100 µM | – | 66.5 µM | – | 82.5 µM | – | > 100 µM | – | > 100 µM | – | > 100 µM |
| CNC(=O)c1cc(OC2CCC(NC(=O)Nc3ccc(Cl)c(C(F)(F)F)c3)CC2)ccn1 (stereo not drawn) | 11.6 µM | 63.1 µM | 11.4 µM | 24.6 µM | 4.95 µM | 26.6 µM | 10.5 µM | 24.5 µM | 5.68 µM | 20.3 µM | 11.7 µM | 50.2 µM | 3.23 µM | 15.9 µM | 8.34 µM | 25 µM | 7.89 µM | 39.6 µM | 4.16 µM | 24.8 µM |
| CS(=O)(=O)CCNCc1nc(-c2ccc3ncnc(Nc4ccc(F)c(Cl)c4)c3c2)cs1 | 15.9 µM | > 25 µM | > 20.2 µM | > 25 µM | > 25 µM | > 25 µM | 9.75 µM | > 25 µM | > 25 µM | > 25 µM | > 12.3 µM | > 17.8 µM | 23.6 µM | > 25 µM | 22.9 µM | > 25 µM | 14.4 µM | > 25 µM | 18 µM | > 25 µM |
| COc1ccc(C(=O)/C(Br)=C/C(=O)O)cc1 | 43.1 µM and 30.9 µM | 649 µM and 399 µM | – | 89.1 µM and 89.4 µM | 33.5 µM | 175 µM and 140 µM | 6.8 µM and 15.1 µM | 19.4 µM and 50 µM | 21.9 µM | 74.4 µM and 85.1 µM | 19.1 µM | 95.7 µM and 128 µM | 53.7 µM | 84 µM and 115 µM | 10.8 µM and 30.7 µM | 56.1 µM and 99.1 µM | – | 326 µM | 8.18 µM | 111 µM and 33.5 µM |
